The values below come from article PMC7224190, “Pharmacological inhibition of PRMT7 links arginine monomethylation to the cellular stress response” (Nature Communications, 2020).

Experiment in all cases: biochemical
Common to all, as to conditions: read-out: % of control remaining

One assay deals with DNMT3A/3L (Homo sapiens, UniProt Q9Y6K1). Details: radiometric methyltransferase selectivity assay with tritiated SAM, per cent activity. On the procedure: (§1) The methyltransferase selectivity was assessed at two compound concentrations of 1 and 10 μM by radiometric assays using tritiated-SAM. For methyltransferases: MLL1, MLL3, EZH1 (PRC2), and EZH2 (PRC2), G9a, GLP, SUV39H1, SUV39H2, SUV420H1, SUV420H2, SETD2, SETD8, SETDB1, SETD7, PRMT1, PRMT3, PRMT4, PRMT5/ MEP50 complex, PRMT6, PRMT7, PRMT8, PRMT9, PRDM9, SMYD2, SMYD3, DNMT1, and BCDIN3D the incorporation of a tritium-labeled methyl group into biotinylated substrate was monitored using scintillation proximity assay (SPA). Briefly, a 10 μL reaction containing ^3H-SAM and substrate at concentrations close to the apparent Km values for each enzyme (balanced conditions) was prepared. The reactions were quenched with 10 μL of 7.5 M guanidine hydrochloride; 180 μL of 20 mM Tris buffer (pH 8.0) were added, and the mixture was transferred to a 96-well FlashPlate and incubated for 1 h. The counts per minute (CPM) was measured on a TopCount plate reader. The CPM in the absence of compound or enzyme was defined as 100% activity and background (0%), respectively, for each dataset[74]–[76]. Selectivity of SGC8158 against 342 kinases was evaluated in a kinase panel TR-FRET assay at 1 and 0.1 μM compound in duplicates as described before. Briefly, tagged kinases were incubated with compound and staurosporine-based fluorescent probe where the binding was detected using Tb conjugated anti-tag antibody energy transfer to the probe. Excitation wavelength was 337 nm and fluorescent emission signal was measured for Tb (486 nm) and fluorescent probe (BODIPY, 515 nm). Specific and non-specific binding was determined in the absence and presence of unlabeled staurosporine.
Sequence of DNMT3A/3L (Q9Y6K1 whole entry, looked up): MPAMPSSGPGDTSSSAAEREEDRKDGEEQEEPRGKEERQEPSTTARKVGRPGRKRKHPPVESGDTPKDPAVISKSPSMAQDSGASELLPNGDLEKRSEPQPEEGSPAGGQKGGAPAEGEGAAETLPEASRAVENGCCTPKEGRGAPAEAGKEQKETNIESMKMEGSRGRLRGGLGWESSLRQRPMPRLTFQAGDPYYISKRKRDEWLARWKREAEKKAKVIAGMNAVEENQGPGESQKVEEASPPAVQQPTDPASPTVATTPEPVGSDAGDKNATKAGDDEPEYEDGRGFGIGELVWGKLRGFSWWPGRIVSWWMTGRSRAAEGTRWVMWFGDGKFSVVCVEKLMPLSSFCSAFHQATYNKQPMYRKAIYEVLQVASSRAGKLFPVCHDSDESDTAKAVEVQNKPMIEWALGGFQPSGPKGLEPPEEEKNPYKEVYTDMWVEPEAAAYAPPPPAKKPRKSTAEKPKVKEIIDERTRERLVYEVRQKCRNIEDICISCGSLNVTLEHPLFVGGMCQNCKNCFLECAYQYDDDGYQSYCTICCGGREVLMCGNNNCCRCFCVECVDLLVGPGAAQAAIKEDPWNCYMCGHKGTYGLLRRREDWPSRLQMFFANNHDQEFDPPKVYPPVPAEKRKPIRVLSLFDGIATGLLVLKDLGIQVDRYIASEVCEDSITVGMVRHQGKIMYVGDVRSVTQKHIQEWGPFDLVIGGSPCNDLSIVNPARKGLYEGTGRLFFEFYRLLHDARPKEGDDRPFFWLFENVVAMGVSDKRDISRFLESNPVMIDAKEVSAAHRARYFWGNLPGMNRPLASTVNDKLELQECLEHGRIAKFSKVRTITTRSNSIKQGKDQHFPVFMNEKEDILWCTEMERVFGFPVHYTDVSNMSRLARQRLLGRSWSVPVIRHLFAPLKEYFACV
Sequence of DNMT3A/3L (Q9UJW3 whole entry partner): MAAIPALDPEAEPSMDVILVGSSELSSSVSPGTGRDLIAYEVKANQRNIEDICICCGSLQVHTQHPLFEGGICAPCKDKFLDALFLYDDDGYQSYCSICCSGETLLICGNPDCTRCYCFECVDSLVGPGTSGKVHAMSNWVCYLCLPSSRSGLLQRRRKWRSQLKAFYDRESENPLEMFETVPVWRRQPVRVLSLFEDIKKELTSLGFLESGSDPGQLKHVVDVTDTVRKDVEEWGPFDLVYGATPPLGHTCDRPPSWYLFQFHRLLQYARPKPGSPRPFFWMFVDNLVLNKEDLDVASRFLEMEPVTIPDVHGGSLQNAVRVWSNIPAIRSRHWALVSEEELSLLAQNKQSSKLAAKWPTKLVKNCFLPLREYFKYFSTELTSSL

The target of another assay is T1, MLL3 (Homo sapiens, UniProt Q8NEZ4).
T1 construct: gene KMT2C
Details: radiometric methyltransferase selectivity assay with tritiated SAM, per cent activity. On the procedure:
as §1

The target of another assay is PRC2-EZH1 (Homo sapiens, UniProt Q92800). Details: radiometric methyltransferase selectivity assay with tritiated SAM, per cent activity. Here is the method:
as §1

A further assay concerns the target SETD2 (Homo sapiens, UniProt Q9BYW2). Details: radiometric methyltransferase selectivity assay with tritiated SAM, per cent activity. Here is the method: as §1
A further assay addresses T2, SUV39H1 (Homo sapiens, UniProt O43463).
T2 sequence (O43463 1-412): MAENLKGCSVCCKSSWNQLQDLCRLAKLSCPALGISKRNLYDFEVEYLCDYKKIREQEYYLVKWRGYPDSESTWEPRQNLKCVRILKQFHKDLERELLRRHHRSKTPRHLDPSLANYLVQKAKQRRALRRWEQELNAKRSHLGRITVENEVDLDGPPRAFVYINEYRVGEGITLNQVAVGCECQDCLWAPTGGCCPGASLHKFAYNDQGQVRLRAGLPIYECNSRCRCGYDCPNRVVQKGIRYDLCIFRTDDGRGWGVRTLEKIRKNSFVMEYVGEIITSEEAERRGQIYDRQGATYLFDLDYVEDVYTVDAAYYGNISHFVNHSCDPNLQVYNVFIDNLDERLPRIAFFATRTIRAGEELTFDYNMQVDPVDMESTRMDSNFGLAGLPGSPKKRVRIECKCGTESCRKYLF
Details: radiometric methyltransferase selectivity assay with tritiated SAM, per cent activity. Here is the method:
as §1

The next assay addresses PRC2-EZH2 (Homo sapiens, UniProt Q15910). Also on record: radiometric methyltransferase selectivity assay with tritiated SAM, per cent activity.
The target in another assay is T3, PRMT7 (Homo sapiens, UniProt Q9NVM4).
T3 sequence (Q9NVM4 1-692): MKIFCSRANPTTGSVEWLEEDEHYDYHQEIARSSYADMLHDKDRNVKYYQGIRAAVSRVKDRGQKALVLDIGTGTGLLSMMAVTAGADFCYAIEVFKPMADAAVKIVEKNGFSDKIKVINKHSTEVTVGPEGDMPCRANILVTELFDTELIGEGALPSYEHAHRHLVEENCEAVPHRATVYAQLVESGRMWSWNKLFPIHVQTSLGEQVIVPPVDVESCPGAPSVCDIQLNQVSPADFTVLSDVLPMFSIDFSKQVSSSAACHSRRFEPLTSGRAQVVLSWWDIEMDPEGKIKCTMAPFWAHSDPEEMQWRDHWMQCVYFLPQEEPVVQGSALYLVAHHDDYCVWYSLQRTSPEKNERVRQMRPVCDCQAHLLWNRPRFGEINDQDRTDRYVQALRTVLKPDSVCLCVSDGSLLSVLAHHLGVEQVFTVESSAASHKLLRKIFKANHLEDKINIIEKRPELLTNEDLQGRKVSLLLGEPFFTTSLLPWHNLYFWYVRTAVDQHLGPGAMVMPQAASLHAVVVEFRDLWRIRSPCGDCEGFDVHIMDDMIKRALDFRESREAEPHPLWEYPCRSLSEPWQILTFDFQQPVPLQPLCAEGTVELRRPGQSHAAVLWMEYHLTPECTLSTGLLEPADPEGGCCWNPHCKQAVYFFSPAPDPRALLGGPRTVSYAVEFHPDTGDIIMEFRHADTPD
Also on record: full-length; radiometric methyltransferase selectivity assay with tritiated SAM, per cent activity. On the procedure: as §1

Sequence of PRC2-EZH2 (Q15910 whole entry): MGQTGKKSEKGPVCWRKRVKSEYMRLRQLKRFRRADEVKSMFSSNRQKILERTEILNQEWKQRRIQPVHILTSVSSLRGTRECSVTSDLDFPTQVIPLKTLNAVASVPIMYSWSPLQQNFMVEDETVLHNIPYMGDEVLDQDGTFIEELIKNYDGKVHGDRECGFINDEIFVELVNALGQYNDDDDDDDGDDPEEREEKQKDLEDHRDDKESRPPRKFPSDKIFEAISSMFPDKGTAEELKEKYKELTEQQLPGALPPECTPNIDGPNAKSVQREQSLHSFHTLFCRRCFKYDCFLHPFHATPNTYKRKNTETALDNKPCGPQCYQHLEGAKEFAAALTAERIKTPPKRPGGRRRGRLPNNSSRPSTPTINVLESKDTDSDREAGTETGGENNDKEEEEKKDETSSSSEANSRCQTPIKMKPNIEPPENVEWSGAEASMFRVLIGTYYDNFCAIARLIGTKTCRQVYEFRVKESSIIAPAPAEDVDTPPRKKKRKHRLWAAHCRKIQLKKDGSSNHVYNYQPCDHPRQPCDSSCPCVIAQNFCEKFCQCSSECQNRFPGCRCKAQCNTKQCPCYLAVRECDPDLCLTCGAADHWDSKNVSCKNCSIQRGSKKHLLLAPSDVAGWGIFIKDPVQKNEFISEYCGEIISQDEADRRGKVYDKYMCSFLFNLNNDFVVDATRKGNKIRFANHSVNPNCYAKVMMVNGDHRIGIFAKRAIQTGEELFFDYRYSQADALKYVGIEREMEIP
Sequence of PRC2-EZH2 (O75530 whole entry partner): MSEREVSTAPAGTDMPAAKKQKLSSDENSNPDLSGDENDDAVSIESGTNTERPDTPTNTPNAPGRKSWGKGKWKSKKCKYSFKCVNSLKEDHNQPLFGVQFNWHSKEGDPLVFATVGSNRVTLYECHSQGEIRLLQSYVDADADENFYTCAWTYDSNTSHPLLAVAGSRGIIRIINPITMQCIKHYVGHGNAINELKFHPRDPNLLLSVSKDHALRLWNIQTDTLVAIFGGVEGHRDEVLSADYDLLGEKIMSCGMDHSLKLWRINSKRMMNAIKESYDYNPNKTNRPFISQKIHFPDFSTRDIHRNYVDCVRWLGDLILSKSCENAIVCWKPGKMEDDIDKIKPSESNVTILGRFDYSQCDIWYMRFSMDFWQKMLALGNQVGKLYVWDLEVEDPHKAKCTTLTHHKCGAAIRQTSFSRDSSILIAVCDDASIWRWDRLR
Sequence of PRC2-EZH2 (Q15022 whole entry partner): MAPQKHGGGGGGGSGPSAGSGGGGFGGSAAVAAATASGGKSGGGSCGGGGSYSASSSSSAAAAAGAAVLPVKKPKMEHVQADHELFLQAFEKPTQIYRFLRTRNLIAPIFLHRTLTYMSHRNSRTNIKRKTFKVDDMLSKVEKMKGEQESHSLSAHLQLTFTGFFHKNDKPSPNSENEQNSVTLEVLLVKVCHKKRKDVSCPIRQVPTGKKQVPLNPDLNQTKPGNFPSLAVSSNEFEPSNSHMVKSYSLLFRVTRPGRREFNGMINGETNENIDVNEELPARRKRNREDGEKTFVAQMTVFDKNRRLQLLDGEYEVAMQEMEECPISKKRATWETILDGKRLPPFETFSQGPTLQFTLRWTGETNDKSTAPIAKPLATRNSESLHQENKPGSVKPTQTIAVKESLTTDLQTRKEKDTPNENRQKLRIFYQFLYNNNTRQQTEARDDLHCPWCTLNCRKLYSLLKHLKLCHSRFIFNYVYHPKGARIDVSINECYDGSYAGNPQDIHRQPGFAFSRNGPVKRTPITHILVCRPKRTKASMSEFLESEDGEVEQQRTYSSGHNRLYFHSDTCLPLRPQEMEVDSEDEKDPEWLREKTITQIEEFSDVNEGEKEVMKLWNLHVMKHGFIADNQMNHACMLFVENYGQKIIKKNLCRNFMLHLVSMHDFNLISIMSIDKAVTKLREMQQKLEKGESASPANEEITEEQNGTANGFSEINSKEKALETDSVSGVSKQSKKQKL
Sequence of PRC2-EZH1 (Q92800 whole entry): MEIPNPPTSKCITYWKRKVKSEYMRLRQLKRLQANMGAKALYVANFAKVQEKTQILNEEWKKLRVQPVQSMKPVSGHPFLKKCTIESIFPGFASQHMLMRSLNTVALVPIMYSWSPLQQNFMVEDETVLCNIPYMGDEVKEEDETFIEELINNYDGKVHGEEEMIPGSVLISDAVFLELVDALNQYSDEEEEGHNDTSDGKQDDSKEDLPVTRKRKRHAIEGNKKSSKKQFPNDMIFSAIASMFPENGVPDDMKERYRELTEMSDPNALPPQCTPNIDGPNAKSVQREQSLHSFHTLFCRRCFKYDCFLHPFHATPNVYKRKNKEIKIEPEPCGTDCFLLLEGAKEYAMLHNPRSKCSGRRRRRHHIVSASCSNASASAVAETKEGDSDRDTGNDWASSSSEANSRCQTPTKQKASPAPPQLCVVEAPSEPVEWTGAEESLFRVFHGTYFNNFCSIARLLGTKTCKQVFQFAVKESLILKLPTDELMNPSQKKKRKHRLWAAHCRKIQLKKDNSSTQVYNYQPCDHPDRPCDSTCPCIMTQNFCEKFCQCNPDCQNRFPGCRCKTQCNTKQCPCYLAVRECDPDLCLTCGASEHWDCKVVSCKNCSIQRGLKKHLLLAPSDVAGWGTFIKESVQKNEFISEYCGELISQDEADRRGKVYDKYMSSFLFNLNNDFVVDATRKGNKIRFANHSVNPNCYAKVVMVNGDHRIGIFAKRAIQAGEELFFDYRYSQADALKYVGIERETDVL
Sequence of PRC2-EZH1 (O75530 whole entry partner): as the sequence (O75530 whole entry partner) above
Sequence of PRC2-EZH1 (Q15022 whole entry partner): as the sequence (Q15022 whole entry partner) above

On to `CC1(C)O[C@@H]2[C@H](O1)[C@@H](CSCCCCNCc1cccc(-c3ccc(Cl)cc3)c1)O[C@H]2n1cnc2c(N)ncnc21` [SGC8158N], for which the remaining activity at 1 µM on DNMT3A/3L was 100%; at MLL3, 99%; at PRC2-EZH1, 92%; on SETD2 it was 103%; at SUV39H1 it was 98%; on PRC2-EZH2, 93%. The remaining activity at 1 µM at PRMT7 turned out to be 95%. For the same molecule, the remaining activity at 10 µM on DNMT3A/3L was determined as 99%; at MLL3, 100%; on PRC2-EZH1, 93%; on SETD2 it was 97%; on SUV39H1, 78%; on PRC2-EZH2, 88%. Also, at PRMT7, the remaining activity at 10 µM stood at 75%.
As to `Nc1ncnc2c1ncn2[C@@H]1O[C@H](CSCCCCNCc2cccc(-c3ccc(Cl)cc3)c2)[C@@H](O)[C@H]1O` [SGC8158], the remaining activity at 1 µM at DNMT3A/3L came to 100%; on MLL3 it was 105%; on PRC2-EZH1, 106%; on SETD2, 95%; at SUV39H1 it was 94%; on PRC2-EZH2, 105%. Further, the remaining activity at 1 µM on PRMT7 was found to be 2%. Further, the remaining activity at 10 µM is 99% at DNMT3A/3L; 105% on MLL3; 100% at PRC2-EZH1; 86% at SETD2; 90% at SUV39H1; 94% at PRC2-EZH2. The remaining activity at 10 µM on PRMT7 turned out to be 0%.
